For this test, the target named is T1, CBL-B (Homo sapiens, UniProt Q13191).
T1 construct: GST
Put plainly: CBL-B TR-FRET IC50 screening (E1/E2 ubiquitination, Biotin-Ubiquitin, Anti GST-Tb donor / Streptavidin-d2 acceptor). In kind it is biochemical. To be noted: CBL-B 10 nM final; 11-point titration from 100 uM; binned A-F; read-out: CBL-B TR-FRET activity IC50. (In TR-FRET formats the signal depends on donor and acceptor labels being close together.)

Bounds are passed on as bounds.

T1 sequence (Q13191 whole entry): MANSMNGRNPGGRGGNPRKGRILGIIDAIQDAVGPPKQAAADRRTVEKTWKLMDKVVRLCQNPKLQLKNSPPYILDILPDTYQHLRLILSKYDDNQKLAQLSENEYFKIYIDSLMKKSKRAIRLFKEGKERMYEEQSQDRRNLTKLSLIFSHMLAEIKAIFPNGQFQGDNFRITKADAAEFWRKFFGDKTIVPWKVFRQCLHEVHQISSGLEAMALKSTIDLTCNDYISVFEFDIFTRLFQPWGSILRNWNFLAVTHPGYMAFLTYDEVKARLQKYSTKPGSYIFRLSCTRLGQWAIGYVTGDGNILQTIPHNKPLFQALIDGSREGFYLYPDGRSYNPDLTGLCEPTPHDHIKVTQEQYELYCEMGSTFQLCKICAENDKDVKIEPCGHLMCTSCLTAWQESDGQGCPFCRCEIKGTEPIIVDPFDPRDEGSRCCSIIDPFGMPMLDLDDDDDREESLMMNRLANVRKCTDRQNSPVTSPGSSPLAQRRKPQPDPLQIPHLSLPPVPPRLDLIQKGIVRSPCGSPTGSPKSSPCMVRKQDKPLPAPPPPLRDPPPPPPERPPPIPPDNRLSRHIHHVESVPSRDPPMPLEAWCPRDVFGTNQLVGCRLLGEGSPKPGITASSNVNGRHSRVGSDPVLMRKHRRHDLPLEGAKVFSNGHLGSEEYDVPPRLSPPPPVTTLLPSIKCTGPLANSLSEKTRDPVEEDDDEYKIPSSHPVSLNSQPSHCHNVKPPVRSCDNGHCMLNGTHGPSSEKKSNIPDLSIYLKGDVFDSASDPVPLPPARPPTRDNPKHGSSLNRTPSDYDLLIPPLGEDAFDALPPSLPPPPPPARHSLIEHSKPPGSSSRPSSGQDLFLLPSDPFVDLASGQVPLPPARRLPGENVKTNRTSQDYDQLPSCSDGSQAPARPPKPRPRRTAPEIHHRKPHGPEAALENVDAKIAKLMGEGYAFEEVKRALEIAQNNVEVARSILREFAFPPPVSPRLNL

Take `CC(c1cc(C(F)(F)F)c2cn(-c3cccc([C@H](c4nncn4C)C4CCC4)c3)c(=O)n2c1)N1CCC[C@H](C)C1` (single isomer, unassigned) [Compound 194]: the IC50 (commonly the point on the concentration scale where inhibition reaches its midpoint) is less than 100 nM.

As to `C[C@H]1CCCN(C(c2cc(C(F)(F)F)c3cn(-c4cccc(C5(Cc6nncn6C)COC5)c4)c(=O)n3c2)C(F)(F)F)C1` (single isomer, unassigned) [Compound 195], the IC50 fell in the range of 100 to 300 nM.

Take `C[C@H]1CCCN(C(c2cc(C(F)(F)F)c3cn(-c4cccc(C5(Cc6nncn6C)COC5)c4)c(=O)n3c2)C(F)(F)F)C1` (single isomer, unassigned) [Compound 196]: the IC50 is 301 to 1000 nM.

As to `C[C@H]1CCCN(Cc2cc(C(F)(F)F)c3cn(-c4cccc([C@H](c5nncs5)C5CCC5)c4)c(=O)n3c2)C1` (single isomer, unassigned) [Compound 202], the IC50 was less than 100 nM.

In the case of `C[C@H]1CCCN(Cc2cc(C(F)(F)F)c3cn(-c4cccc([C@@H](c5nncs5)C5CCC5)c4)c(=O)n3c2)C1` (single isomer, unassigned) [Compound 203], the IC50 is 301 to 1000 nM.

For `C[C@@H]1CN(Cc2cc(C(F)(F)F)c3cn(-c4cccc([C@]5(Cc6nncn6C)C[C@H](C#N)C5)c4)c(=O)n3c2)CCC1(F)F` (single isomer, unassigned) [Compound 204], the IC50 is less than 100 nM.

For the molecule `C[C@H]1CN(Cc2cc(C(F)(F)F)c3cn(-c4cccc([C@]5(Cc6nncn6C)C[C@H](C#N)C5)c4)c(=O)n3c2)CCC1(F)F` (single isomer, unassigned) [Compound 205], the IC50 was less than 100 nM.

With `C[C@@H]1CN(Cc2cc(C(F)(F)F)c3cn(-c4cccc([C@]5(c6nncn6C)C[C@@H](C)C5)c4)c(=O)n3c2)CCO1` (single isomer, unassigned) [Compound 213], the IC50 is less than 100 nM.

As for `[2H]C([2H])([2H])n1cnnc1[C@]1(c2cccc(-n3cc4c(C(F)(F)F)cc(CN5CCC[C@H](C)C5)cn4c3=O)c2)C[C@@H](C)C1` (single isomer, unassigned) [Compound 214], the IC50 is less than 100 nM.

For `Cn1cnnc1[C@]1(c2cccc(-n3cc4c(C(F)(F)F)cc(CN5CCC6(CC6)C5)cn4c3=O)c2)C[C@@H](C)C1` (single isomer, unassigned) [Compound 215], the IC50 was less than 100 nM.

Regarding `Cn1cnnc1[C@]1(c2cccc(-n3cc4c(C(F)(F)F)cc(CN5CCC(C)(F)CC5)cn4c3=O)c2)C[C@@H](C)C1` (single isomer, unassigned) [Compound 217], the IC50 was less than 100 nM.

For `Cn1cnnc1[C@]1(c2cccc(-n3cc4c(C(F)(F)F)cc(CN5CCC6(CC6)C5)cn4c3=O)c2)C[C@H](C)C1` (single isomer, unassigned) [Compound 222], the IC50 was less than 100 nM.

As to `C[C@H]1CCCN(Cc2cc(C(F)(F)F)c3cn(-c4cc([C@@H](c5nncn5C)C5CCC5)cc(C(F)(F)F)c4)c(=O)n3c2)C1` (single isomer, unassigned) [Compound 223], the IC50 is less than 100 nM.

In the case of `C[C@H]1CCCN(Cc2cc(C(F)(F)F)c3cn(-c4cc([C@H](c5nncn5C)C5CCC5)cc(C(F)(F)F)c4)c(=O)n3c2)C1` (single isomer, unassigned) [Compound 224], the IC50 is more than 10000 nM.

Take `Cn1cnnc1[C@]1(c2cccc(-n3cc4c(C(F)(F)F)cc(CN5CC[C@H](F)C5)cn4c3=O)c2)C[C@H](C)C1` (single isomer, unassigned) [Compound 226]: the IC50 was less than 100 nM.

As for `Cn1cnnc1[C@]1(c2cccc(-n3cc4c(C(F)(F)F)cc(CN5CCC(C)(F)CC5)cn4c3=O)c2)C[C@H](C)C1` (single isomer, unassigned) [Compound 227], the IC50 was less than 100 nM.

Consider `C[C@@H]1CN([C@H](C)c2cc(C(F)(F)F)c3cn(-c4cccc([C@@H](c5nncn5C)C5CCC5)c4)c(=O)n3c2)CCO1` (single isomer, unassigned) [Compound 231], for which the IC50 was 3000 to 10000 nM.

Turning to `C[C@@H]1CN([C@@H](C)c2cc(C(F)(F)F)c3cn(-c4cccc([C@@H](c5nncn5C)C5CCC5)c4)c(=O)n3c2)CCO1` (single isomer, unassigned) [Compound 232], the IC50 lay in the range of 301 to 1000 nM.

As to `C[C@@H]1CN([C@H](C)c2cc(C(F)(F)F)c3cn(-c4cccc([C@H](c5nncn5C)C5CCC5)c4)c(=O)n3c2)CCO1` (single isomer, unassigned) [Compound 233], the IC50 is less than 100 nM.

As for `C[C@@H]1CN([C@@H](C)c2cc(C(F)(F)F)c3cn(-c4cccc([C@H](c5nncn5C)C5CCC5)c4)c(=O)n3c2)CCO1` (single isomer, unassigned) [Compound 234], the 50% inhibitory concentration (IC50) was less than 100 nM.

Regarding `COC1CCN(Cc2cc(C(F)(F)F)c3cn(-c4cccc([C@@H](c5nncn5C)C5CCC5)c4)c(=O)n3c2)CC1` (single isomer, unassigned) [Compound 235], the IC50 was 1000 to 3000 nM.

`Cn1cnnc1[C@]1(c2cccc(-n3cc4c(C(F)(F)F)cc(CN5CC6(CC6)C5)cn4c3=O)c2)C[C@H](C)C1` (single isomer, unassigned) [Compound 236]: the IC50 was less than 100 nM.

On to `Cn1cnnc1[C@]1(c2cccc(-n3cc4c(C(F)(F)F)cc(CN5CCC(F)CC5)cn4c3=O)c2)C[C@H](C)C1` (single isomer, unassigned) [Compound 237], for which the IC50 is less than 100 nM.

Consider `C[C@H]1CCCN(Cc2cc(C(F)(F)F)c3cn(-c4cc(F)cc([C@@H](c5nncn5C)C5CCC5)c4)c(=O)n3c2)C1` (single isomer, unassigned) [Compound 242], for which the IC50 was more than 10000 nM.

Consider `C[C@H]1CCCN(Cc2cc(C(F)(F)F)c3cn(-c4cc(F)cc([C@H](c5nncn5C)C5CCC5)c4)c(=O)n3c2)C1` (single isomer, unassigned) [Compound 243], for which the IC50 is less than 100 nM.

As to `C[C@H]1CCCN([C@@H](c2cc(C(F)(F)F)c3cn(-c4cccc([C@@H](c5nncn5C)C5CCC5)c4)c(=O)n3c2)C(F)(F)F)C1` (single isomer, unassigned) [Compound 256], the IC50 was more than 10000 nM.

On to `C[C@H]1CCCN([C@H](c2cc(C(F)(F)F)c3cn(-c4cccc([C@@H](c5nncn5C)C5CCC5)c4)c(=O)n3c2)C(F)(F)F)C1` (single isomer, unassigned) [Compound 257], for which the IC50 is more than 10000 nM.

`CO[C@H]1CCCCN(Cc2cc(C(F)(F)F)c3cn(-c4cccc([C@H](c5nncn5C)C5CCC5)c4)c(=O)n3c2)C1` (single isomer, unassigned) [Compound 261]: the IC50 was less than 100 nM.

Consider `CO[C@@H]1CCCCN(Cc2cc(C(F)(F)F)c3cn(-c4cccc([C@H](c5nncn5C)C5CCC5)c4)c(=O)n3c2)C1` (single isomer, unassigned) [Compound 262], for which the IC50 is less than 100 nM.

In the case of `CO[C@H]1CCCN(Cc2cc(C(F)(F)F)c3cn(-c4cccc([C@H](c5nncn5C)C5CCC5)c4)c(=O)n3c2)CC1` (single isomer, unassigned) [Compound 263], the IC50 was less than 100 nM.

`CO[C@@H]1CCCN(Cc2cc(C(F)(F)F)c3cn(-c4cccc([C@H](c5nncn5C)C5CCC5)c4)c(=O)n3c2)CC1` (single isomer, unassigned) [Compound 264]: the IC50 is less than 100 nM.

Take `Cn1cnnc1[C@@H](c1cccc(-n2cc3c(C(F)(F)F)cc(CN4CCC[C@H](C(F)(F)F)C4)cn3c2=O)c1)C1CCC1` (single isomer, unassigned) [Compound 271]: the IC50 was less than 100 nM.

With `Cn1cnnc1[C@@H](c1cccc(-n2cc3c(C(F)(F)F)cc(CN4CCC[C@@H](C(F)(F)F)C4)cn3c2=O)c1)C1CCC1` (single isomer, unassigned) [Compound 272], the IC50 was less than 100 nM.

In the case of `C[C@H]1CCCCN(Cc2cc(C(F)(F)F)c3cn(-c4cccc([C@H](c5nncn5C)C5CCC5)c4)c(=O)n3c2)C1` (single isomer, unassigned) [Compound 273], the IC50 was less than 100 nM.

Consider `C[C@@H]1CCCCN(Cc2cc(C(F)(F)F)c3cn(-c4cccc([C@H](c5nncn5C)C5CCC5)c4)c(=O)n3c2)C1` (single isomer, unassigned) [Compound 274], for which the IC50 is less than 100 nM.

In the case of `Cc1scnc1[C@H](c1cccc(-n2cc3c(C(F)(F)F)cc(CN4CCC[C@H](C)C4)cn3c2=O)c1)C1CCC1` (single isomer, unassigned) [Compound 282], the IC50 is more than 10000 nM.

For `Cc1scnc1[C@@H](c1cccc(-n2cc3c(C(F)(F)F)cc(CN4CCC[C@H](C)C4)cn3c2=O)c1)C1CCC1` (single isomer, unassigned) [Compound 283], the IC50 is more than 10000 nM.

For the molecule `Cn1cnnc1[C@@H](c1cccc(-n2cc3c(C(F)(F)F)cc(CN4CC[C@@H](C(F)(F)F)C4)cn3c2=O)c1)C1CCC1` (single isomer, unassigned) [Compound 285], the IC50 was in the range of 100 to 300 nM.

`C[C@H]1CCCN(Cc2cc(C(F)(F)F)c3cn(-c4cc(C#N)cc([C@@H](c5nncn5C)C5CCC5)c4)c(=O)n3c2)C1` (single isomer, unassigned) [Compound 288]: the IC50 was less than 100 nM.

As to `C[C@H]1CCCN(Cc2cc(C(F)(F)F)c3cn(-c4cc(C#N)cc([C@H](c5nncn5C)C5CCC5)c4)c(=O)n3c2)C1` (single isomer, unassigned) [Compound 289], the IC50 was more than 10000 nM.

As for `C[C@H]1CCCN(Cc2cc(C(F)(F)F)c3cn(-c4cccc([C@]5(c6nncs6)C[C@@H](C)C5)c4)c(=O)n3c2)C1` (single isomer, unassigned) [Compound 292], the IC50 was in the range of 100 to 300 nM.

As for `C[C@H]1CCCN(Cc2cc(C(F)(F)F)c3cn(-c4cccc([C@]5(c6nncs6)C[C@H](C)C5)c4)c(=O)n3c2)C1` (single isomer, unassigned) [Compound 293], the IC50 fell in the range of 100 to 300 nM.

As to `C[C@H]1CCCN(Cc2cc(C(F)(F)F)c3cn(-c4cccc([C@]5(c6nncn6C)C[C@H](O)C5)c4)c(=O)n3c2)C1` (single isomer, unassigned) [Compound 301], the IC50 was in the range of 100 to 300 nM.

As to `Cc1conc1[C@H](c1cccc(-n2cc3c(C(F)(F)F)cc(CN4CCC[C@H](C)C4)cn3c2=O)c1)C1CCC1` (single isomer, unassigned) [Compound 302], the IC50 was in the range of 301 to 1000 nM.

Turning to `Cc1conc1[C@@H](c1cccc(-n2cc3c(C(F)(F)F)cc(CN4CCC[C@H](C)C4)cn3c2=O)c1)C1CCC1` (single isomer, unassigned) [Compound 303], the IC50 was more than 10000 nM.

The values are drawn from patent US20240228482A1, “COMPOUNDS, COMPOSITIONS AND METHODS OF TREATING CANCER” (HOTSPOT THERAPEUTICS, INC., priority 2021, published 2024).
